Our source for the cytotoxicity values is ChEMBL document CHEMBL3507680, “University of Dundee, Gates Library screen for HepG2 cell viability”.

The structures appear in SMILES notation.

This series is described as follows: Human HepG2 cell viability assay in 384 well format. The class given is toxicity, cell-based. Also on record: dose 125 nL, time 70.5 hour; cytotoxicity at 70.5 h: concentration not given beside the values. The note with it: HepG2 cells, read-out: Inhibition.
With `O=C(Nc1ncn(Cc2cccc(Br)c2)n1)C1CCC1`, the cytotoxicity at 70.5 h is -13.9%.

Consider `Cc1ccc(CN2CCn3c(CNC(=O)c4cccn4C)cnc3C2)s1`, for which the cytotoxicity at 70.5 h was -10.3%.

In the case of `CC(=O)c1cc(C(=O)N2CC[C@@H]3CC[C@H](C2)N3C)c(=O)[nH]c1C`, the cytotoxicity at 70.5 h worked out at 22.4%.

As for `CC(=O)Nc1nc(CN2CCCC2Cn2cc(C)cn2)cs1` (stereo not given), the cytotoxicity at 70.5 h came to 30.3%.

`CN(CC(=O)N1CCC(COc2ccccc2)CC1)c1cnccn1`: the cytotoxicity at 70.5 h was -0.223%.

With `c1cnc(N2C[C@H]3CN(CC4CCOC4)C[C@H]3C2)nc1` (stereo not given in full), the cytotoxicity at 70.5 h was -4.56%.

For `CN(CC(=O)N1CCCCC1Cn1cccn1)C1CC1` (stereo not given), the cytotoxicity at 70.5 h came out at 4.49%.

On to `CNc1cc(C2CCCN2C(=O)c2ccc(=O)[nH]n2)ccn1` (stereo not given), for which the cytotoxicity at 70.5 h was -2.78%.

`CC(CN(C)C(=O)c1cn(C)nc1-c1ccc(F)cc1F)C(=O)O` (stereo not given): the cytotoxicity at 70.5 h was -1.61%.

`Cc1cc(N2CCCN3CCC[C@H]3C2)n2nc(C)c(C)c2n1`: the cytotoxicity at 70.5 h was -4.24%.

For `CN1CCC(N(CCc2ccccc2)C(=O)c2ccc(C#N)cc2)CC1`, the cytotoxicity at 70.5 h is -7.31%.

Turning to `COCCCNC(=O)c1ccccc1S(C)(=O)=O`, the cytotoxicity at 70.5 h is -13.3%.

For `O=C(c1ccc(F)c(Br)c1)N1CCCN2CCCC2C1` (stereo not given), the cytotoxicity at 70.5 h was -8.34%.

For `CC(C)Cn1ccnc1CNC(=O)NC(C)c1nccs1` (stereo not given), the cytotoxicity at 70.5 h was 1.43%.

Regarding `CCN(CC)c1ncc(CNC2CCc3nc(C(C)C)nn3C2)s1` (stereo not given), the cytotoxicity at 70.5 h is -5.99%.

With `CCc1noc(CC)c1CNC(=O)Nc1cccc(C(=O)N(C)C)c1`, the cytotoxicity at 70.5 h was -1.22%.

`Cn1nc(C2CCCN(Cc3cccs3)C2)c2nccnc21` (stereo not given): the cytotoxicity at 70.5 h amounted to 3.16%.

Turning to `COc1ccc(CC(=O)N(C)C2CCN(C)C2=O)cc1F` (stereo not given), the cytotoxicity at 70.5 h was -6.33%.

Consider `O=C(c1coc2ccccc12)N1CCCC(O)(CO)CC1` (stereo not given), for which the cytotoxicity at 70.5 h was -7.66%.

Consider `Cc1nc(CN(C)C2CCCN(Cc3noc(C4CC4)n3)C2)oc1C` (stereo not given), for which the cytotoxicity at 70.5 h worked out at 14.4%.

For `Cc1ccccc1N1CCN(c2nc(N(C)C)nc3c2CCNC3)CC1`, the cytotoxicity at 70.5 h worked out at 33.6%.

As for `Cc1ccc(-n2ncc(C(=O)NC3CC(C)(C)NC(C)(C)C3)c2N)cc1`, the cytotoxicity at 70.5 h amounted to 19.8%.

Consider `CC(C)n1[nH]c(=O)c2c1NC(=O)CSC2C1CCCCC1` (stereo not given), for which the cytotoxicity at 70.5 h amounted to 9.25%.

In the case of `COc1ncc(CN2CCOC(C)(C(=O)N3CCOCC3)C2)cn1` (stereo not given), the cytotoxicity at 70.5 h is -4.39%.

With `Cc1nc(C)n(CC2CN(Cc3cccc4ccccc34)CCO2)n1` (stereo not given), the cytotoxicity at 70.5 h was -11.6%.

As to `Cc1cc(-n2c(C)cn(CN(C)CC3CC3)c2=O)no1`, the cytotoxicity at 70.5 h was -1.13%.

With `c1ccc(OCCCNCCn2cccn2)cc1`, the cytotoxicity at 70.5 h was -0.836%.

With `CCc1nc2n(n1)CC(Nc1nc(C)cc(N(C)C)n1)CC2` (stereo not given), the cytotoxicity at 70.5 h was -6.31%.

With `CN1CCOC(CNCc2cnc(C(C)(C)C)s2)C1` (stereo not given), the cytotoxicity at 70.5 h came to 0.446%.

Consider `Cc1noc(C)c1C(=O)NCC(c1ccsc1)N(C)C` (stereo not given), for which the cytotoxicity at 70.5 h is -8.5%.

Take `CC(Cn1ccnc1)NC1CCN(Cc2cccc(O)c2)CC1` (stereo not given): the cytotoxicity at 70.5 h is -4.85%.

With `CCCNC(=O)COc1cccc(-c2nc(C(C)C)no2)c1`, the cytotoxicity at 70.5 h was found to be 0.882%.

For the compound `Cc1nc(C(Cc2ccsc2)NC(=O)CN2CCOCC2)sc1C` (stereo not given), the cytotoxicity at 70.5 h is -4.95%.

As to `CC(CNC(=O)N1CCC(CO)CC1)Cc1cccs1` (stereo not given), the cytotoxicity at 70.5 h was -3.99%.

On to `Cc1nn(C)c(N(C)C)c1CNCc1ccccc1Cn1cccn1`, for which the cytotoxicity at 70.5 h is -2.08%.

`Cn1c(C(=O)N2CCC(C(=O)N3CCCC3)CC2)c(Cl)c2ccccc21`: the cytotoxicity at 70.5 h is -9.31%.

Consider `COCCN1CCC2(COCc3c(C)nc(N4CCOCC4)nc32)C1` (stereo not given), for which the cytotoxicity at 70.5 h was -1.01%.

Regarding `Cc1nc(CN2C[C@@H](NS(=O)(=O)N(C)C)[C@H](C(C)C)C2)cs1`, the cytotoxicity at 70.5 h was -1.78%.

Take `O=C(c1cccs1)N1CCc2c(nc(N3CCCCC3)[nH]c2=O)C1`: the cytotoxicity at 70.5 h was -0.672%.

As to `Fc1ccc(OCc2noc(CN3CCc4cncnc4C3)n2)cc1`, the cytotoxicity at 70.5 h was -4.28%.

Take `CCn1cc(CN(C)c2nc(C)c3ccc(S(C)(=O)=O)cc3n2)cn1`: the cytotoxicity at 70.5 h was -5.64%.

As for `COc1ccc(NC2CCc3c2[nH]c(=O)n(C2CCCCC2)c3=O)cc1` (stereo not given), the cytotoxicity at 70.5 h is -28.5%.

Regarding `COc1ccc(CN2CC[C@H]3[C@H]2CCN3C(=O)c2cnn(C)c2)cc1`, the cytotoxicity at 70.5 h is -0.0414%.

With `CN(Cc1n[nH]c(=O)n1Cc1cccs1)S(C)(=O)=O`, the cytotoxicity at 70.5 h is -0.816%.

Turning to `CN(C)C(=O)c1ccc(C2CCCN2C(=O)c2cccc3c2OCC3)s1` (stereo not given), the cytotoxicity at 70.5 h is -6.24%.

As for `Cc1ccn2c(=O)cc(CSCC(=O)Nc3nnc(C(C)C)s3)nc2c1`, the cytotoxicity at 70.5 h stood at 23%.

With `Cc1ccc(C)c(NC(=O)Cn2nc(C)c(C#N)c2N)c1`, the cytotoxicity at 70.5 h is -10.2%.

With `Cc1nn(C)cc1-c1cc(C(F)(F)F)nn1CCC#N`, the cytotoxicity at 70.5 h is -1.92%.

Consider `CCNS(=O)(=O)C1CCN(C(=O)c2ccc(CC)o2)C1` (stereo not given), for which the cytotoxicity at 70.5 h is -9.53%.

Regarding `Cc1cnn(CC2CCCN2C(=O)c2ccc3cc[nH]c3c2)c1` (stereo not given), the cytotoxicity at 70.5 h worked out at 0.784%.

As to `COc1cc(O)ccc1CN1CCN(C2CCc3ccccc3C2)CC1` (stereo not given), the cytotoxicity at 70.5 h is -3.26%.

Regarding `Cc1ccc(C(=O)NC2CCN(C(=O)Nc3ccncc3)CC2)o1`, the cytotoxicity at 70.5 h was -13.5%.

Consider `CC(=O)N1[C@H](CN(C)C)C[C@@H]2CN(C(=O)c3ccno3)CC[C@@H]21`, for which the cytotoxicity at 70.5 h was -9.81%.

Turning to `COCC1CN(Cc2cccc(C#N)c2)Cc2nccn2C1` (stereo not given), the cytotoxicity at 70.5 h was determined as 1.24%.

In the case of `Cc1cc(C)n(C2CCCN(C(=O)CCOc3ccccc3F)C2)n1` (stereo not given), the cytotoxicity at 70.5 h is -9.17%.

With `CCOC(C)c1noc(CN2CCNCC2)n1` (stereo not given), the cytotoxicity at 70.5 h stood at 13.6%.

In the case of `Cc1cccnc1[C@H](C)Nc1nc(-c2cccnc2)nc2c1CNC2`, the cytotoxicity at 70.5 h is -8.07%.

For `Cc1nc(N(C)C)cc(C2(C)CCNCC2)n1`, the cytotoxicity at 70.5 h is -1.8%.

As for `O=C(c1ccncc1)N1CCCC2(COCCN(c3ccccc3)C2)C1` (stereo not given), the cytotoxicity at 70.5 h was -16.1%.

As for `CC(C#N)CN(C)C(=O)CCNC(=O)OC(C)(C)C` (stereo not given), the cytotoxicity at 70.5 h was -6.35%.

As for `CCn1cc(CN2CCN(CC(O)c3ccc(C)cc3C)CC2)c(C)n1` (stereo not given), the cytotoxicity at 70.5 h is -6.8%.

As to `c1ccc(OCCN2CCC(c3nnc(-c4cccnc4)o3)CC2)cc1`, the cytotoxicity at 70.5 h was -2.58%.

With `CC(=O)c1cccc(CN2CCCC23CCN(c2ccccn2)CC3)c1`, the cytotoxicity at 70.5 h is -4.38%.

Take `CCn1ccnc1-c1nc2cc(S(=O)(=O)N3CCCC3)ccc2n1C`: the cytotoxicity at 70.5 h was -3.32%.

Turning to `Cc1cn2c(n1)C(CNCc1cccc3c1OCO3)CCC2` (stereo not given), the cytotoxicity at 70.5 h came to 23.3%.

As for `O=C(NC[C@H]1CCCC[C@H]1O)c1cccc2[nH]c(-c3ccco3)nc12`, the cytotoxicity at 70.5 h was 15.3%.

With `c1ccc(N2CCCC2)c(NCc2ccncc2)c1`, the cytotoxicity at 70.5 h is -39.9%.

As for `CSCc1noc(CN2CC3(CCCC3)CC2=O)n1`, the cytotoxicity at 70.5 h was -7.21%.

With `CN(C)[C@@H]1CCN(S(=O)(=O)C2CC2)[C@H]1Cc1ccccc1`, the cytotoxicity at 70.5 h turned out to be 1.77%.

With `COc1ccc2c(c1)CCCN2C(=O)CN1CCOC(CN(C)C)C1` (stereo not given), the cytotoxicity at 70.5 h is -4.78%.

`CN1CCOC(C(=O)Nc2nnc(Cc3ccc(F)cc3)[nH]2)C1` (stereo not given): the cytotoxicity at 70.5 h is -7.94%.

For `Cc1cc(NC(N)=O)ccc1C(=O)N(C)C`, the cytotoxicity at 70.5 h came out at 4.17%.

For the compound `CN(C)CCn1c([C@@H]2CCCO2)cc2cccnc21`, the cytotoxicity at 70.5 h worked out at 2.42%.

`CC1CCN(c2ccnc3ccc(Br)cc23)CC1`: the cytotoxicity at 70.5 h is 2%.

Consider `CCCc1ccc2oc(C(=O)N3CCCN(C)CC3)c(C)c2c1`, for which the cytotoxicity at 70.5 h is -2.52%.

Turning to `CCOC[C@H]1CC[C@H]2[C@H](CCN2C(=O)c2ccncc2F)O1`, the cytotoxicity at 70.5 h was -8.92%.

`CC(C)c1n[nH]c(C2CN(C(=O)c3cc(C(N)=O)cs3)CCO2)n1` (stereo not given): the cytotoxicity at 70.5 h was 0.559%.

On to `NC(=O)CSc1nnc2n1N=CN(c1ccccc1F)C2`, for which the cytotoxicity at 70.5 h is -6.75%.

Consider `Cn1ccnc1CN1CCN(c2ccc(C#N)cc2F)CC1`, for which the cytotoxicity at 70.5 h is -7.5%.

As to `CC(C)N1CCc2c(C#N)c(NCc3ccco3)n3cnnc3c2C1`, the cytotoxicity at 70.5 h was -10.3%.

Regarding `CCn1c(NCc2ccco2)nc2c(C)nn(C)c2c1=O`, the cytotoxicity at 70.5 h was found to be 31.6%.

Take `CCOC1CCN(C(=O)Nc2ccc(=O)n(C)c2)CC1`: the cytotoxicity at 70.5 h was found to be 25%.

In the case of `CCOCCC(=O)NCCNc1nccc(C(F)(F)F)n1`, the cytotoxicity at 70.5 h was found to be 2.23%.

`CS(=O)(=O)N1CC[C@@H](CC(=O)O)[C@@H](CC2=NCCc3cc(F)ccc32)C1`: the cytotoxicity at 70.5 h is -6.32%.

For the compound `CN1CC(=O)c2sc(NCCc3ccccc3)nc2C1`, the cytotoxicity at 70.5 h turned out to be 30%.

In the case of `CN(C)Cc1ccnc(C2CCCN2Cc2cc[nH]n2)n1` (stereo not given), the cytotoxicity at 70.5 h was -1.65%.

As for `CCN1C[C@@H]2CN(S(=O)(=O)c3cccs3)C[C@@H]2C1=O`, the cytotoxicity at 70.5 h is -8.27%.

Regarding `Cc1cccc(Nc2cccc(C3CCCN(Cc4ncc[nH]4)C3)n2)n1` (stereo not given), the cytotoxicity at 70.5 h was -8.27%.

As for `CCOCC(O)CN1CCN(C(=O)c2ccccc2Cl)CC1` (stereo not given), the cytotoxicity at 70.5 h was -2.72%.

Take `COc1ccc(CNC(=O)NCCc2nc(C)c(C)s2)cn1`: the cytotoxicity at 70.5 h was -3.08%.

On to `Cc1cc(CNC(=O)CN2CCCC(Cn3cncn3)C2)ccc1F` (stereo not given), for which the cytotoxicity at 70.5 h is 3.75%.

Take `Cc1sc(N)nc1-c1ccc(Cl)cc1`: the cytotoxicity at 70.5 h came to 15.4%.

Take `Cc1ccc(C(=O)Nc2nn[nH]n2)s1`: the cytotoxicity at 70.5 h was -0.43%.

As to `COc1ccc(C(N)=O)cc1NCc1noc(-c2ccsc2)n1`, the cytotoxicity at 70.5 h was -10.8%.

Turning to `COc1cccc(C(C(=O)O)N2CCSCC2)c1F` (stereo not given), the cytotoxicity at 70.5 h amounted to 13%.

`CCN(CC)C(=O)CCNC(=O)c1c[nH]c2ccc(OC)cc12`: the cytotoxicity at 70.5 h was 1.48%.

Consider `CSC(C)(C)CNC(=O)NCC[S+]([O-])c1ccccc1` (stereo not given), for which the cytotoxicity at 70.5 h was -6.22%.

As to `O=C(CSc1ccccc1F)NS(=O)(=O)c1ccc2c(c1)OCCO2`, the cytotoxicity at 70.5 h was -0.308%.

With `N#Cc1cc(F)ccc1Cn1cnc(C2CCC2)cc1=O`, the cytotoxicity at 70.5 h was 1.8%.

For the compound `CC(=O)N1CCO[C@@H]2CN(S(=O)(=O)c3cccs3)CC[C@@H]2C1`, the cytotoxicity at 70.5 h is -9.77%.
